Assay results published in patent US7834148B2, “Protein phosphorylation imaging systems, methods of making phosphorylation imaging systems, and methods of use thereof” (Stanford University, priority 2006, dated 2010).

What was measured:
[1] = system: insulin receptor substrate 1 (IRS-1) phosphorylation; assay: Firefly Luciferase based IRS-1 phosphorylation sensor in transfected CHO-IR cells; type: cell-based; details: presence of insulin compared to no insulin exposure
Source text: FIG. 4 is a graph of the activation of the Firefly Luciferase based IRS-1 phosphorylation sensor as a function of Insulin exposure. Results of CHO-IR cells transfected and co-transfected with a self-complementing Firefly Luciferase based IRS-1 sensor used for studying insulin mediated IRS-1 phosphorylation. A two-vector system, single fusion vector with and without a semi-rigid linker were all compared. Greater absolute signal is seen with the fusion vector strategies.
Next, constructs were made using self-complementing split fragments of Firefly Luciferase with a semi-rigid linker or without any linker, and these were compared with two separate vectors (non-fusion approach) in CHO-IR cells in the presence and absence of insulin (FIG. 3). The results of these studies show signal from all three vectors in the presence of insulin, but the highest absolute signal is from the two fusion vectors. Furthermore, for the two fusion vectors the background signal is lowest (prior to insulin exposure) when using the fusion vector with a semi-rigid linker.
The fusion strategy increases absolute signal as compared to using two separate vectors. Furthermore, using a semi-rigid linker decreases background signal in the fusion vector strategy. […]

[2] = system: insulin receptor substrate 1 (IRS-1) phosphorylation; assay: Bioluminescence CCD imaging of split Firefly Luciferase IRS-1 phosphorylation sensor, CHO-IR cells implanted in living mice; type: in vivo, nude mice; details: mice with implanted sensor-transfected CHO-IR cells, 4 IU s.c. in twelve hour intervals, imaged 24 hours later
Experimental: FIG. 5 illustrates a bioluminescence CCD imaging of a split Firefly Luciferase based Insulin Receptor Substrate 1 (IRS-1) phosphorylation sensor in a living mouse.
Four nude mice were implanted with 5 million CHO-IR cells transiently transfected with the fusion split firefly IRS-1 phosphorylation sensor with linker (EAAAR)2 and also with 5 million CHO-IR mock-transfected cells at two separate sites. The mice were imaged using D-Luciferin (3 mg i.p.) with a CCD camera. Two mice were then given 4 IU human long-acting insulin (s.c.) in twelve hour intervals, and two were not given insulin and all four were imaged again 24 hours later. Consistent results were obtained in the 2 mice in each group with exposure to insulin leading to an increase in signal (˜5-fold induction) and lack of insulin exposure leading to minimal change (˜1.3 fold induction).

[3] = system: insulin receptor substrate 1 (IRS-1) phosphorylation; assay: Renilla Luciferase based IRS-1 phosphorylation sensor, luminometer assay in transfected CHO-IR cells; type: cell-based; details: 24 h incubation, insulin 0, 25, 50 and 100 nM
Experimental: FIG. 3 is a graph of the activation of the Renilla Luciferase based IRS-1 phosphorylation sensor as a function of Insulin concentration. Luminometer assay result of CHO-IR cells transfected with a phosphorylation sensor vector and assayed after 24 h of incubation with the addition of different concentrations of insulin (0, 25, 50 and 100 nM).
The IRS-1 phosphorylation sensor was tested based on split renilla and split Firefly Luciferase in transient transfection assays in cell culture with and without insulin. The single fusion vector (FIG. 2) was utilized with split Renilla Luciferase (split site 229, non-self complementing), with a semi-rigid peptide ((EAAAR)2 (SEQ ID NO: 36)) through screening of different peptides. The phosphorylation domain was the PTB peptide and was chosen to be an 13 amino acid peptide (SEQ ID NO: 28) including Y941 (tyrosine at position 941 of IRS-1). The substrate recognition domain was chosen to be the SH2 domain of PI3 Kinase. The vector constructed was transiently transfected in CHO-IR (expressing the insulin receptor) and 293T cells (not expressing the insulin receptor).

Akt kinase activity [4] = assay: Akt kinase sensor complemented FL activity, bioluminescence imaging of intact 293T/AS1T and 293T/AS1A stable cells; type: cell-based, human; details: AS1T sensor
Experimental: Complemented FL activity at each time point was determined by bioluminescence imaging of intact cells by addition of D-luciferin (FIG. 7a), prior to normalization for protein content (FIG. 7b).
FL activities in intact cells were determined by bioluminescence imaging of intact cells as described above. Cells were lysed in 1% NP40 buffer (Cell Signaling, Beverly, Mass.) for 15 mins on ice followed by centrifugation at 1×10^4 g to remove cell debris. Protein concentrations were determined by Biorad protein Dc assay (Biorad). FL activities were normalized to protein content and then to that of carrier control treated cells and expressed as normalized FL activity±standard error of means (S.E.M.)

Akt kinase activity [5] = assay: Akt kinase sensor (AS1T/AS1A) complemented FL activity, luminometer assay in transiently transfected BT474 cells; type: cell-based, human; details: BT474 transiently transfected with AS1T, 24 hours, at 50 μM, relative to carrier control, p<0.05
Experimental: FL activity was determined by luminometer assays using cell lysates and normalized for protein content and transfection efficiency. LY treatment of BT474 cells transiently transfected with AS1T led to a dose dependent increase in FL activity in (1.3-fold maximum increase, p<0.05 at 50 μM, relative to carrier control treated cells).
(§1) Transfections were performed in 80% confluent 24 hr-old cultures of 293T and BT474 cells. For transient transfection, 250 ng/well of pcDNA molar equivalent of each AS1A and AS1T were used in 12-well tissue culture plates and 5 μl Lipofectamine 2000 was used per transfection following the manufacturer's instructions. 5 ng of pcDNA3.1(+) vector expressing full length RL was co-transfected per well to normalize for transfection efficiency. […]
(§2) In brief, transfected cells were lysed in 200 μl of ice-cold 1× passive lysis buffer supplied by Promega and were shaken for 15 mins on ice. […] RL activity was determined as described for FL activity, except 0.5 μg of coelenterazine dissolved in 100 μl of was used. Protein concentrations in cell lysates were determined by Bradford Assay (Bio-Rad). FL activities were normalized for protein content and for transfection efficiency using RL activity and expressed as relative light units per microgram protein per minute of counting (RLU/μg protein/min).

Akt kinase activity [6] = assay: Akt kinase sensor complemented FL activity, luminometer assay in transiently transfected 293T cells; type: cell-based, human
Experimental: Next the hypothesis that activation of Akt activity would lead to increased phosphorylation of AKM and interaction with FHA2 in AS1T was tested, and subsequent inhibition of split FL complementation. 293T cells transiently transfected with AS1T and AS1A were treated with platelet derived growth factor (PDGF) for 30 minutes prior to analysis of FL activity.
To increase the dynamic range of AS1T for indirect monitoring of Akt kinase activity, the original FL fragments (NFL: 1-416/CFL: 398-550) were replaced with the optimal split FL sites (1-398/394-550) as AS2T. The corresponding FL fragments in AS1A were also replaced to create AS2A. 293T cells transiently transfected with AS2T or AS2A were treated with different concentrations of LY or carrier control for 24 hours prior to analysis of FL activity. […] To determine if the specificity of AS2 can be restored by using more rigid linkers, the flexible (G4S)3 linkers were replaced with (EAAAR)3 used for intramolecular folding sensors previously used to studying FRB/FKBP12 interactions. However, there was a loss of specificity in response to LY.
as §1, §2

Compound: insulin
- signal of split bioluminescence reporter IRS-1 sensor [1]: increased signal
- increase in signal (induction) [2]: ~5 fold induction
- complemented Renilla Luciferase activity [3]: concentration dependent increase

Compound: O=c1cc(N2CCOCC2)oc2c(-c3ccccc3)cccc12 [LY, LY294002]
- maximum induction (dynamic range of AS1T) (Akt kinase activity [4]): 4 fold
- maximum increase in FL activity (Akt kinase activity [5]): 1.3 fold
- increase in FL activity with AS2T or AS2A compared to AS1T or AS1A (Akt kinase activity [6]; 293T transiently transfected, LY for 24 hours, unpublished data): 2 fold

Compound: platelet derived growth factor [PDGF]
- FL activity (Akt kinase activity [6]; 293T transiently transfected with AS1A, 30 minutes treatment, p>0.05): did not significantly decrease
- decrease in FL activity (Akt kinase activity [6]; 293T transiently transfected with AS1T, 30 minutes treatment, vs carrier control, p<0.05): 60%
